Results reported in PMC10892120, “Design, Synthesis and Biological Assessment of N′-(2-Oxoindolin-3-ylidene)-6-methylimidazo[2,1-b]thiazole-5-carbohydrazides as Potential Anti-Proliferative Agents toward MCF-7 Breast Cancer” (Pharmaceuticals, 2024).
Read-outs that look alike come from different tables or passages of the source.

Tests used:
[1] = tested on: MCF-7 breast cell line; experiment: MTT assay, anti-proliferative activity toward MCF-7; assay type: cell-based; conditions: Homo sapiens, MCF7
Description: . The developed compounds were evaluated in vitro using the MTT cell viability assay following the published techniques (Supplementary Data, page 42). […]
(§1) The 96 well tissue culture plate was seeded with 1 X 10^5 cells / ml (100 ul / well) and cultured at 37 degrees Celsius for 24 hours to form a full monolayer sheet. After forming a confluent sheet of cells, growth medium was decanted from 96 well micro titer plates, the cell monolayer was washed twice with wash media, and two-fold dilutions of the tested sample were prepared in RPMI medium with 2% serum (maintenance medium). In each well, 0.1 ml of each dilution was examined, with three wells serving as controls and receiving only maintenance media.
(§2) The plate was incubated at 37 degrees Celsius and then analyzed. Cells were examined for any physical evidence of toxicity, such as partial or total monolayer loss, rounding, shrinkage, or cell granulation. MTT solution (5mg/ml in PBS) was prepared (BIO BASIC CANADA INC), and 20ul MTT solution was added to each well. Shake the MTT into the medium for 5 minutes at 150rpm on a shaking table. Incubate for 4 hours (37°C, 5% CO2) to allow the MTT to be digested. Remove the media. (If required, dry plate on paper towels to remove residue. In 200ul DMSO, resuspend formazan (MTT metabolic product). Shake at 150rpm for 5 minutes to properly mix the formazan into the solvent. At 560nm, measure optical density and subtract background at 620nm. The optical density should be proportional to the number of cells. MCF-7 and MCF-10A cell lines were provided with 10% fetal bovine serum (FBS, Sigma-Aldrich, MO, USA). Data are presented as the mean of the IC50 values ± SD from three different experiments. […]

[2] = tested on: MCF-7 cell line; conditions: cited from earlier work
[3] = tested on: MCF-10A; experiment: MTT assay, cytotoxicity toward MCF-10A; assay type: cell-based; conditions: Homo sapiens
Description: The developed compounds were evaluated in vitro using the MTT cell viability assay following the published techniques (Supplementary Data, page 42). […]
as §1, §2

[4] = biological target: VEGFR-2 (Homo sapiens, UniProt P35968); experiment: In vitro VEGFR-2 kinase inhibition assay; assay type: biochemical; conditions: mean ± SD of three experiments
[5] = MCF-7 cell line, MTT assay, mean ± SD of three experiments, read-out: IC50
[6] = MTT assay, mean ± SD of three experiments, read-out: IC50

Sequence of VEGFR-2 (P35968 20-1356): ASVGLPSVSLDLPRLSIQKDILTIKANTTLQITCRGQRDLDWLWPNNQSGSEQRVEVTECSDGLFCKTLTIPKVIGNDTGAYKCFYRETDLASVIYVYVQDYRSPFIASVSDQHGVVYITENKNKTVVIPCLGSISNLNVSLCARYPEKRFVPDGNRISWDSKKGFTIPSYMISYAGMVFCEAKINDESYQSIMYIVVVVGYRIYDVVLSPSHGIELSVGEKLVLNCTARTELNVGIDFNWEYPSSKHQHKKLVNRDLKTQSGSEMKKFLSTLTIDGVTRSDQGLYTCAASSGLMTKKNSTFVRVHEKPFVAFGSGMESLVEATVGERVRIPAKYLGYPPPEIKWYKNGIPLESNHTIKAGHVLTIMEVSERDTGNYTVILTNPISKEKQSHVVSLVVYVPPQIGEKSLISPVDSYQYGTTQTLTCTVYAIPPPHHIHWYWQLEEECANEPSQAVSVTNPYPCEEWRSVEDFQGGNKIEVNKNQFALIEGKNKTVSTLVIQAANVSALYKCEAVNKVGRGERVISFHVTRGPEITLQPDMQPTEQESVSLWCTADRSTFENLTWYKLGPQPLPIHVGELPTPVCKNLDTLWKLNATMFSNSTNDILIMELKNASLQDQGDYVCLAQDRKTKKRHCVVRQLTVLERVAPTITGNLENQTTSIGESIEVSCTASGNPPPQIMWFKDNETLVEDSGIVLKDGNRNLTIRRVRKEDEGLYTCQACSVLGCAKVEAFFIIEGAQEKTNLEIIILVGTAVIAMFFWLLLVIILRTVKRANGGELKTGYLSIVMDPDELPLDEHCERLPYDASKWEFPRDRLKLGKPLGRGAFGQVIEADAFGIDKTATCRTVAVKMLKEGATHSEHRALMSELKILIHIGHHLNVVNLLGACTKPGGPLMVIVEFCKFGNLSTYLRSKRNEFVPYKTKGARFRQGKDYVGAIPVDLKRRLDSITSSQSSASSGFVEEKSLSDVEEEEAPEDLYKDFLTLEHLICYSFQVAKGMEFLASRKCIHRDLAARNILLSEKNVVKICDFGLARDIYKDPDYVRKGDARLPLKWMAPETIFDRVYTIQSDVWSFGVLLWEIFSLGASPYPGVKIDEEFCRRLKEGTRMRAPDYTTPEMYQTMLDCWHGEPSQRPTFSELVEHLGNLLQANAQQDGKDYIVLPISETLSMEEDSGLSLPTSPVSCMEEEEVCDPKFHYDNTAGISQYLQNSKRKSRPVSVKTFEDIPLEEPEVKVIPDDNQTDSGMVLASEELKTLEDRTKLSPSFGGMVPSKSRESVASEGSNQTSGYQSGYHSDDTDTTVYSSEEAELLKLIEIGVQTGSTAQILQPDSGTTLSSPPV

Row | Compound | melting point [°C] | IC50 [1] [µM] | IC50 [1, 5] [µM] | other results
1 | CCCN1C(=O)C(=NNC(=O)c2c(C)nc3sccn23)c2cc(F)ccc21 [Compound 6f, N′-(5-Fluoro-2-oxo-1-propylindolin-3-ylidene)-6-methylimidazo[2,1-b]thiazole-5-carbohydrazide] | 243 to 244 | 82.5 ± 2.75 |  | 
2 | CCCCN1C(=O)/C(=N\NC(=O)c2c(C)nc3sccn23)c2cc(Br)ccc21 [Compound 6l, N′-(5-Romo-1-butyl-2-oxoindolin-3-ylidene)-6-methylimidazo[2,1-b]thiazole-5-carbohydrazide] | 237 to 238 | 52.6 ± 2.36 |  | 
3 | O=C1Nc2ccccc2/C1=N/N=C/c1ccc[nH]1 [VI] |  |  |  | IC50 ([2]; MCF-7 cancerous cell line): 6250 nM
4 | COc1ccc(NC(=O)Nc2c(C)nc3sccn23)cc1 [Compound 8c, 1-(4-Methoxyphenyl)-3-(6-methylimidazo[2,1-b]thiazol-5-yl)urea] | 284 to 285 |  | 106 ± 5.32 | 
5 | Cc1nc2sccn2c1NC(=O)Nc1ccc(F)cc1 [Compound 8d, 1-(4-Fluorophenyl)-3-(6-methylimidazo[2,1-b]thiazol-5-yl)urea] | 281 to 282 |  | 72.3 ± 4.71 | 
6 | COc1cc(C(=O)/C=C/c2c(C(F)(F)F)nc3sccn23)cc(OC)c1OC [IX] |  |  |  | IC50 ([2]; MCF-7 cell line): 794 nM
7 | Cc1nc2sccn2c1NC(=O)Nc1ccc(Cl)cc1 [Compound 8e, 1-(4-Chlorophenyl)-3-(6-methylimidazo[2,1-b]thiazol-5-yl)urea] | 285 to 286 |  | 35.7 ± 3.32 | 
8 | Cc1nc2sccn2c1NC(=O)Nc1ccc(S(N)(=O)=O)cc1 [Compound 8g, 4-(3-(6-Methylimidazo[2,1-b]thiazol-5-yl)ureido)benzenesulfonamide] | 283 to 284 |  | 41.6 ± 1.59 | 
9 | CNC(=O)c1cc(Oc2ccc(NC(=O)Nc3ccc(Cl)c(C(F)(F)F)c3)cc2)ccn1 [Sorafenib (I), Sorafenib, reference compound] |  |  | 7.55 ± 0.4 | IC50 [3, 6]: 22.4 ± 1.29 µM
10 | Cc1ccc(NC(=O)Nc2c(C)nc3sccn23)cc1 [Compound 8b, 1-(6-Methylimidazo[2,1-b]thiazol-5-yl)-3-(p-tolyl)urea] | 282 to 283 |  | 115 ± 4.99 | 
11 | CCCN1C(=O)C(=NNC(=O)c2c(C)nc3sccn23)c2cc(Br)ccc21 [Compound 6h, N′-(5-Bromo-2-oxo-1-propylindolin-3-ylidene)-6-methylimidazo[2,1-b]thiazole-5-carbohydrazide] | 261 to 262 | 74.3 ± 2.19 |  | 
12 | CCCCN1C(=O)C(=NNC(=O)c2c(C)nc3sccn23)c2cc(Cl)ccc21 [Compound 6k, N′-(1-Butyl-5-chloro-2-oxoindolin-3-ylidene)-6-methylimidazo[2,1-b]thiazole-5-carbohydrazide] | 224 to 225 | 42.7 ± 2.01 |  | 
13 | CCCCN1C(=O)C(=NNC(=O)c2c(C)nc3sccn23)c2cc(F)ccc21 [Compound 6j, N′-(1-Butyl-5-fluoro-2-oxoindolin-3-ylidene)-6-methylimidazo[2,1-b]thiazole-5-carbohydrazide] | 237 to 238 | 11.7 ± 0.52 |  | IC50 [3]: 47.7 ± 0.53 µM; IC50 [4]: 1510 ± 60 nM
14 | CCCN1C(=O)C(=NNC(=O)c2c(C)nc3sccn23)c2ccccc21 [Compound 6e, 6-Methyl-N′-(2-oxo-1-propylindolin-3-ylidene)imidazo[2,1-b]thiazole-5-carbohydrazide] | 256 to 257 | 61.4 ± 3.15 |  | 
15 | Cc1nc2sccn2c1NC(=O)Nc1ccc(Br)cc1 [Compound 8f, 1-(4-Bromophenyl)-3-(6-methylimidazo[2,1-b]thiazol-5-yl)urea] | 288 to 289 |  | 31.1 ± 2.47 | 
16 | Cc1nc2sccn2c1NC(=O)Nc1ccccc1 [Compound 8a, 1-(6-Methylimidazo[2,1-b]thiazol-5-yl)-3-phenylurea] | 287 to 288 |  | 110 ± 4.62 | 
17 | Cc1nc2sccn2c1C(=O)NN=C1C(=O)Nc2ccc(Cl)cc21 [Compound 6c, N′-(5-Chloro-2-oxoindolin-3-ylidene)-6-methylimidazo[2,1-b]thiazole-5-carbohydrazide] | 292 to 293 |  | 43.1 ± 3.69 | 
18 | Cc1nc2sccn2c1C(=O)NN=C1C(=O)Nc2ccccc21 [Compound 6a, 6-Methyl-N′-(2-oxoindolin-3-ylidene)imidazo[2,1-b]thiazole-5-carbohydrazide] | > 300 |  | 24 ± 0.67 | 
19 | COc1ccc(-c2nc(N/N=C3/C(=O)Nc4ccc(Cl)cc43)c3ccccc3n2)cc1OC [VIII] |  |  |  | IC50 ([2]; MCF-7 cancerous cell line): 2100 nM
20 | Cc1nc2sccn2c1C(=O)NN=C1C(=O)Nc2ccc(F)cc21 [Compound 6b, N′-(5-Fluoro-2-oxoindolin-3-ylidene)-6-methylimidazo[2,1-b]thiazole-5-carbohydrazide] | > 300 |  | 11.5 ± 0.52 | IC50 [3, 6]: 125 ± 2.7 µM; IC50 [4]: 3850 ± 150 nM
21 | CCCN1C(=O)C(=NNC(=O)c2c(C)nc3sccn23)c2cc(Cl)ccc21 [Compound 6g, N′-(5-Chloro-2-oxo-1-propylindolin-3-ylidene)-6-methylimidazo[2,1-b]thiazole-5-carbohydrazide] | 254 to 255 | 52.5 ± 1.26 |  | 
22 | Cc1nc2sccn2c1C(=O)NN=C1C(=O)Nc2ccc(Br)cc21 [Compound 6d, N′-(5-Bromo-2-oxoindolin-3-ylidene)-6-methylimidazo[2,1-b]thiazole-5-carbohydrazide] | 296 to 297 |  | 22.8 ± 1.38 | 
